Reference: patent US11407719B2, “Anti-inflammatory agents” (Resverlogix Corp., priority 2009, dated 2022)

What was measured:
VCAM-1 mRNA = experiment: Quantification of hVCAM mRNA; assay type: cell-based, human; design: key: Active: an active compound is one that causes a ≥20% inhibition in VCAM-1 mRNA at a concentration less than or equal to 10 μM; -1 mRNA at a concentration less than or equal to 10 μM; conditions: VCAM-1 mRNA by real-time PCR; HUVECs, 1 h pretreatment, tumor necrosis factor-α stimulation 24 h; concentration ≤10 μM
Protocol: In this example, […] in tissue culture cells was quantitated to measure the transcriptional inhibition of hVCAM when treated with a compound of the invention.
Human umbilical vein endothelial cells (HUVECs) were plated in a 96-well plate (4.0×10^3 cells/well) in 100 μL EGM media and incubated for 24 h prior to the addition of the compound of interest. The cells were pretreated for 1 h with the test compound prior to stimulation with tumor necrosis factor-α. The cells were incubated for an additional 24 h before the cells were harvested. At time of harvest, the spent media was removed from the HUVECs and rinsed in 200 μL PBS. Cell lysis solution (70 μL) was then added the cells in each well and incubated for ˜5-10 min at room temperature, to allow for complete cell lysis and detachment. mRNA was then prepared using the “mRNA Catcher PLUS plate” (Invitrogen), according to the protocol supplied. After the last wash, as much wash buffer as possible was aspirated without allowing the wells to dry. Elution buffer (E3, 70 μL) was then added to each well. mRNA was then eluted by incubating the mRNA Catcher PLUS plate with elution buffer for 5 min at 68° C. and then immediately placing the plate on ice.
(§1) The eluted mRNA so isolated was then used in a one-step quantitative real-time PCR reaction, using components of the Ultra Sense Kit together with Applied Biosystems primer-probe mixes. Real-time PCR data was analyzed, normalizing the Ct values for hVCAM to an internal control, prior to determining the fold induction of each unknown sample, relative to the control.

hIL-6 mRNA = experiment: Quantification of hIL-6 mRNA; assay type: cell-based, human; design: key: Active: an active compound is one that causes a ≥20% inhibition in IL-6 mRNA at a concentration less than or equal to 10 μM; conditions: IL-6 mRNA by real-time PCR; differentiated U937 cells, 1 h pretreatment, lipopolysaccharide stimulation 3 h; concentration ≤10 μM
Protocol: In this example, […] in tissue culture cells was quantitated to measure the transcriptional inhibition of hIL-6 when treated with a compound of the invention.
A human leukemic monocyte lymphoma cell line (U937) was plated (3.2×10^5 cells per well) in a 96-well plate in 100 μL RPMI-1640, and differentiated for 3 days prior to the addition of the compound of interest. The cells were pretreated for 1 h with the test compound prior to stimulation with lipolysaccharide from Escherichia coli. The cells were incubated at 37° C. for 3 h before the cells were harvested. At time of harvest, the spent media was removed from the cells and the cells were rinsed in 200 μL PBS. Cell lysis solution (70 μL) was added the cells in each well and incubated for 5-10 min at room temperature, to allow for complete cell lysis and detachment. mRNA was then prepared using the “mRNA Catcher PLUS plate” (Invitrogen), according to the protocol supplied. After the last wash, as much wash buffer as possible was aspirated without allowing the wells to dry. Elution buffer (E3, 70 μL) was then added to each well. mRNA was then eluted by incubating the mRNA Catcher PLUS plate with Elution Buffer for 5 min at 68° C. and then immediately placing the plate on ice.
as §1, with “mRNA” for “mRNA so”, “hIL-6” for “hVCAM”

SMILES: COc1cc(OC)cc(-c2nc3cc(OC)cc(OC)c3c(=O)[nH]2)c1 [2-(3,5-dimethoxyphenyl)-5,7-dimethoxyquinazolin-4(3H)-one]
- Inhibition of VCAM-1 expression (VCAM-1 mRNA): Active
- Inhibition of IL-6 expression (hIL-6 mRNA): Active

SMILES: Cc1cc(-c2nc3cc(F)cc(N4CCCC4)c3c(=O)[nH]2)cc(C)c1OCCN1CCCC1 [2-(3,5-Dimethyl-4-(2-(pyrrolidin-1-yl)ethoxy)phenyl)-7-fluoro-5-(pyrrolidin-1-yl)quinazolin-4(3H)-one]
- Inhibition of VCAM-1 expression (VCAM-1 mRNA): Active
- Inhibition of IL-6 expression (hIL-6 mRNA): Active

SMILES: COc1cc(OC)c2c(=O)[nH]c(-c3ccc(N4CCN(C(C)=O)C(C)C4)cc3)nc2c1 (stereo not shown) [2-(4-(4-Acetyl-3-methylpiperazin-1-yl)phenyl)-5,7-dimethoxyquinazolin-4(3H)-one]
- Inhibition of VCAM-1 expression (VCAM-1 mRNA): Active
- Inhibition of IL-6 expression (hIL-6 mRNA): Active

SMILES: COc1cc(OC)c2c(=O)[nH]c(-c3ccc(N4CCN(C(=O)C5CC5)CC4)cc3)nc2c1 [2-(4-(4-(Cyclopropanecarbonyl)piperazin-1-yl)phenyl)-5,7-dimethoxyquinazolin-4(3H)-one]
- Inhibition of VCAM-1 expression (VCAM-1 mRNA): Active
- Inhibition of IL-6 expression (hIL-6 mRNA): Active

SMILES: COc1cc(OC)c2c(=O)[nH]c(-c3cc(C)c(OCCN4C(=O)CCC4=O)c(C)c3)nc2c1 [1-(2-(4-(5,7-Dimethoxy-4-oxo-3,4-dihydroquinazolin-2-yl)-2,6-dimethylphenoxy)ethyl)pyrrolidine-2,5-dione]
- Inhibition of VCAM-1 expression (VCAM-1 mRNA): Active
- Inhibition of IL-6 expression (hIL-6 mRNA): Active

SMILES: COc1cc(OC)c2c(=O)[nH]c(-c3ccc4[nH]c(CN(C)C)cc4c3)nc2c1 [2-(2-((Dimethylamino)methyl)-1H-indol-5-yl)-5,7-dimethoxyquinazolin-4(3H)-one]
- Inhibition of VCAM-1 expression (VCAM-1 mRNA): Active
- Inhibition of IL-6 expression (hIL-6 mRNA): Active

SMILES: CCN1CCN(Cc2ccc(-c3nc4cc(OC)cc(OC)c4c(=O)[nH]3)cc2)CC1 [2-(4-((4-ethylpiperazin-1-yl)methyl)phenyl)-5,7-dimethoxyquinazolin-4(3H)-one]
- Inhibition of VCAM-1 expression (VCAM-1 mRNA): Active
- Inhibition of IL-6 expression (hIL-6 mRNA): Active

SMILES: COc1cc2nc(-c3ccc(N(C)C)c4ccccc34)[nH]c(=O)c2cc1OC [2-(4-(dimethylamino)naphthalen-1-yl)-6,7-dimethoxyquinazolin-4(3H)-one]
- Inhibition of VCAM-1 expression (VCAM-1 mRNA): Active
- Inhibition of IL-6 expression (hIL-6 mRNA): Active

SMILES: COc1cccc(-c2nc3cc(OC)cc(OC)c3c(=O)[nH]2)c1 [5,7-Dimethoxy-2-(3-methoxyphenyl)quinazolin-4(3H)-one]
- Inhibition of VCAM-1 expression (VCAM-1 mRNA): Active
- Inhibition of IL-6 expression (hIL-6 mRNA): Active

SMILES: COc1cc(OC)c2c(=O)[nH]c(-c3ccc(N4CCC(NC(C)=O)C4)cc3)nc2c1 (stereo not shown) [N-(1-(4-(5,7-Dimethoxy-4-oxo-3,4-dihydroquinazolin-2-yl)phenyl)pyrrolidin-3-yl)acetamide]
- Inhibition of VCAM-1 expression (VCAM-1 mRNA): Active
- Inhibition of IL-6 expression (hIL-6 mRNA): Active

SMILES: COc1cc(OC)c2c(=O)[nH]c(-c3cc(C)c(OCCN4CCOCC4)c(C)c3)nc2c1 [2-(3,5-dimethyl-4-(2-morpholinoethoxy)phenyl)-5,7-dimethoxyquinazolin-4(3H)-one]
- Inhibition of VCAM-1 expression (VCAM-1 mRNA): Active
- Inhibition of IL-6 expression (hIL-6 mRNA): Active

SMILES: COc1cc(OC)c2c(=O)[nH]c(-c3ccc4[nH]c(CN5CCCC5)cc4c3)nc2c1 [5,7-Dimethoxy-2-(2-(pyrrolidin-1-ylmethyl)-1H-indol-5-yl)quinazolin-4(3H)-one]
- Inhibition of VCAM-1 expression (VCAM-1 mRNA): Active
- Inhibition of IL-6 expression (hIL-6 mRNA): Active

SMILES: COc1cc(OC)c2c(=O)[nH]c(-c3ccc4[nH]c(CCN5CCCC5)cc4c3)nc2c1 [5,7-Dimethoxy-2-(2-(2-(pyrrolidin-1-yl)ethyl)-1H-indol-5-yl)quinazolin-4(3H)-one]
- Inhibition of VCAM-1 expression (VCAM-1 mRNA): Active
- Inhibition of IL-6 expression (hIL-6 mRNA): Active

SMILES: CCCCCC(=O)N1CCN(c2ccc(-c3nc4cc(OC)cc(OC)c4c(=O)[nH]3)cc2)CC1 [2-(4-(4-Hexanoylpiperazin-1-yl)phenyl)-5,7-dimethoxyquinazolin-4(3H)-one]
- Inhibition of VCAM-1 expression (VCAM-1 mRNA): Inactive
- Inhibition of IL-6 expression (hIL-6 mRNA): Active

SMILES: COc1cc(OC)c2c(=O)[nH]c(-c3ccc(N4CCN(C(=O)c5cnn(C)c5Cl)CC4)cc3)nc2c1 [2-(4-(4-(5-Chloro-1-methyl-1H-pyrazole-4-carbonyl)piperazin-1-yl)phenyl)-5,7-dimethoxyquinazolin-4(3H)-one]
- Inhibition of VCAM-1 expression (VCAM-1 mRNA): Active
- Inhibition of IL-6 expression (hIL-6 mRNA): Active

SMILES: O=c1[nH]c(-c2ccc(N3CCN(CC(F)(F)F)CC3)cc2)nc2ccccc12 [2-(4-(4-(2,2,2-Trifluoroethyl)piperazin-1-yl)phenyl)quinazolin-4(3H)-one]
- Inhibition of VCAM-1 expression (VCAM-1 mRNA): Inactive
- Inhibition of IL-6 expression (hIL-6 mRNA): Active

SMILES: COc1cc(OC)c2c(=O)[nH]c(-c3ccc(N4C[C@@H](C)N[C@@H](C)C4)cc3)nc2c1 [2-(4-((3R,5S)-3,5-Dimethylpiperazin-1-yl)phenyl)-5,7-dimethoxyquinazolin-4(3H)-one]
- Inhibition of VCAM-1 expression (VCAM-1 mRNA): Active
- Inhibition of IL-6 expression (hIL-6 mRNA): Active

SMILES: COc1cc(OC)c2c(=O)[nH]c(-c3ccc(N4CCN(C(C)=O)CC4)cc3)nc2c1 [2-(4-(4-Acetylpiperazin-1-yl)phenyl)-5,7-dimethoxyquinazolin-4(3H)-one]
- Inhibition of VCAM-1 expression (VCAM-1 mRNA): Active
- Inhibition of IL-6 expression (hIL-6 mRNA): Active

SMILES: COc1cc(OC)c2c(=O)[nH]c(-c3ccc(N4CCN(C(=O)C(C)C)CC4)cc3)nc2c1 [2-(4-(4-Isobutyrylpiperazin-1-yl)phenyl)-5,7-dimethoxyquinazolin-4(3H)-one]
- Inhibition of VCAM-1 expression (VCAM-1 mRNA): Active
- Inhibition of IL-6 expression (hIL-6 mRNA): Active

SMILES: Cc1cc(-c2nc3ccccc3c(=O)[nH]2)cc(C)c1OCCN1CCOCC1 [2-(3,5-dimethyl-4-(2-morpholinoethoxy)phenyl)quinazolin-4(3H)-one]
- Inhibition of VCAM-1 expression (VCAM-1 mRNA): Active
- Inhibition of IL-6 expression (hIL-6 mRNA): Active

SMILES: CCN(C(C)=O)C1CCN(c2ccc(-c3nc4cc(OC)cc(OC)c4c(=O)[nH]3)cc2)CC1 [N-(1-(4-(5,7-Dimethoxy-4-oxo-3,4-dihydroquinazolin-2-yl)phenyl)piperidin-4-yl)-N-ethylacetamide]
- Inhibition of VCAM-1 expression (VCAM-1 mRNA): Active
- Inhibition of IL-6 expression (hIL-6 mRNA): Active

SMILES: COc1cc(OC)c2c(=O)[nH]c(-c3ccc(CN4CCN(C)CC4)cc3)nc2c1 [5,7-dimethoxy-2-(4-((4-methylpiperazin-1-yl)methyl)phenyl)quinazolin-4(3H)-one]
- Inhibition of IL-6 expression (hIL-6 mRNA): Active

SMILES: COc1cc(OC)c2c(=O)[nH]c(-c3ccc(N4CCC(N(C(C)=O)C(C)C)CC4)cc3)nc2c1 [N-(1-(4-(5,7-dimethoxy-4-oxo-3,4-dihydroquinazolin-2-yl)phenyl)piperidin-4-yl)-N-isopropylacetamide]
- Inhibition of IL-6 expression (hIL-6 mRNA): Active

SMILES: COc1cc(OC)c2c(=O)[nH]c(-c3ccc(N4CCC(=O)CC4)cc3)nc2n1 [5,7-Dimethoxy-2-(4-(4-oxopiperidin-1-yl)phenyl)pyrido[2,3-d]pyrimidin-4(3H)-one]
- Inhibition of IL-6 expression (hIL-6 mRNA): Active

SMILES: COc1cc(OC)c2c(=O)[nH]c(-c3ccc(CN4CCOCC4)cc3)nc2c1 [5,7-dimethoxy-2-(4-(morpholinomethyl)phenyl)quinazolin-4(3H)-one]
- Inhibition of IL-6 expression (hIL-6 mRNA): Active

SMILES: COc1cc(OC)c2c(=O)[nH]c(-c3ccc(N4CCC(NS(C)(=O)=O)CC4)cc3)nc2c1 [N-(1-(4-(5,7-Dimethoxy-4-oxo-3,4-dihydroquinazolin-2-yl)phenyl)piperidin-4-yl)methanesulfonamide]
- Inhibition of IL-6 expression (hIL-6 mRNA): Active

SMILES: COc1cc(OC)c2c(=O)[nH]c(-c3ccc(N4CCNC(C)C4)cc3)nc2c1 (stereo not shown) [5,7-Dimethoxy-2-(4-(3-methylpiperazin-1-yl)phenyl)quinazolin-4(3H)-one]
- Inhibition of IL-6 expression (hIL-6 mRNA): Active

SMILES: Cc1cc(-c2nc3nc(OC(C)C)cc(OC(C)C)c3c(=O)[nH]2)cc(C)c1OCCN1CCCC1 [2-(3,5-Dimethyl-4-(2-(pyrrolidin-1-yl)ethoxy)phenyl)-5,7-diisopropoxypyrido[2,3-d]pyrimidin-4(3H)-one]
- Inhibition of IL-6 expression (hIL-6 mRNA): Active
